Experimental data from patent US20060105329A1, “Gene panel participating in liver regeneration” (priority 2001, published 2006).
“And” between values parts separate entries of the source, which are not always exact repeats. Equal entries are not always repeated.

Assays:
[1] = system: rat genes involved in L-alanine metabolism; assay: Expression analysis of genes involved in L-alanine metabolism by Taqman PCR (SYBR Green) with L-alanine administration during liver regeneration; type: in vivo; conditions: L-alanine 2 g/10 ml/kg BW orally 18 and 21 hr after 70% partial hepatectomy vs 0.3% CMC control, liver at 24 hr, values only in FIGS. 2 to 4
Description: Expression changes were examined with L-alanine administration during liver regeneration regarding 59 types of rat genes involved in L-alanine metabolism extracted in Example 2.
Five 6 week-old F344 male rats (120 g) were fed for 6 days by giving feed CRF-1 (Oriental Yeast) and water and then divided into 2 groups (Group 1 and Group 2) each consisting of rats with the same body weight. At 24 hours before dissection, 70% partial hepatectomy (left lobe and intermediate lobe) was performed by the method of Higgins-Anderson (Higgins, G M and Anderson, R M, Arch. Pathol. 12, 186-191, 1931). On the day of autopsy, the rats were starved for 6 hours before the dissection. At 18 and 21 hours after the partial hepatectomy, 2 g/10 ml/kg BW of L-alanine was orally administered as an aqueous solution containing 0.3% carboxymethylcellulose (Group 1), and only 0.3% carboxymethylcellulose was orally administered as a control (Group 2).
Dissection was performed at 24 hours after the partial hepatectomy. After the rats were killed by bleeding under anesthesia, livers were extracted, weighed, cryopreserved and then subjected to the mRNA expression measurement by the Taqman PCR (SYBR Green) method. […]
All the Taqman PCR (SYBR Green) reactions were performed in duplicate, and the cycle threshold (CT) was calculated. […]

[2] = system: high mobility group protein 2; assay: ATAC-PCR gene expression in liver of partially hepatectomized rats administered L-alanine, gene No. 17; type: in vivo, rat
Description: (§1) L-alanine is known to have effect of accelerating liver regeneration (Maezono K et al., Hepatology 24(5), 1996, Effect of Alanine on D-Galactosamine-Induced Acute Liver Failure in Rats; Japanese Patent Laid-open Publication No. 5-229940). Therefore, rats were subjected to partial hepatectomy and orally administered with L-alanine at 18 and 21 hours after the hepatectomy, and then gene expressions at 24 hours after the hepatectomy were examined.
(§2) Five 6 week-old F344 male rats (120 g) were preliminarily fed for 6 days by giving feed CRF-1 (Oriental Yeast) and water and then divided into 2 groups (Group 1 and Group 2) each consisting of rats with the same body weight. At 24 hours before dissection, 70% partial hepatectomy was performed by the method by Higgins-Anderson (Higgins, G M and Anderson, R M, Arch. Pathol. 12, 186-191, 1931). On the day of autopsy, the rats were starved for 6 hours before dissection. […]
(§3) Gene expressions in rat liver in each group were measured by ATAC-PCR. […] In ATAC-PCR, among the genes in the gene panel, 117 types of which expression could be measured by ATAC-PCR using the restriction enzyme MboI were measured (those except for Nos. 12, 49, 52, 55, 58, 59, 61, 69, 73, 77, 83, 90, 93, 101, 102, 108, 130, 134, 135 and 136 mentioned in Table 1).
(§4) Further, the gene expressions in Groups 1 and 2 were measured by ATAC-PCR for the genes of the gene panel and compared. […]

deoxy-UTPase (dUTPase) = assay: ATAC-PCR gene expression in liver of partially hepatectomized rats administered L-alanine, gene No. 68; type: in vivo, rat
Description: as §1, §2, §3, §4

nuclear RNA helicase = assay: ATAC-PCR gene expression in liver of partially hepatectomized rats administered L-alanine, gene No. 36; type: in vivo, rat
Description: as §1, §2, §3, §4

[3] = system: liver nuclear protein p47; assay: ATAC-PCR gene expression in liver of partially hepatectomized rats administered L-alanine, gene No. 46; type: in vivo, rat
Description: as §1, §2, §3, §4

[4] = system: amino acid transporter system A (ATA2); assay: ATAC-PCR gene expression in liver of partially hepatectomized rats administered L-alanine, gene No. 5; type: in vivo, rat
Description: as §1, §2, §3, §4

[5] = system: gene No. 117 in the gene panel; assay: ATAC-PCR gene expression in liver of partially hepatectomized rats administered L-alanine, gene No. 117; type: in vivo, rat
Description: as §1, §2, §3, §4

liver regeneration = conditions: Maezono K et al., Hepatology 24(5), 1996; JP 5-229940; cited from earlier work
[6] = system: liver proliferating cell nucleus antigen (PCNA); assay: PCNA labeling index in liver of partially hepatectomized rats administered L-alanine; type: in vivo, rat
Description: as §1
Five 6 week-old F344 male rats (120 g) were preliminarily fed for 6 days by giving feed CRF-1 (Oriental Yeast) and water and then divided into 2 groups (Group 1 and Group 2) each consisting of rats with the same body weight. At 24 hours before dissection, 70% partial hepatectomy was performed by the method by Higgins-Anderson (Higgins, G M and Anderson, R M, Arch. Pathol. 12, 186-191, 1931). On the day of autopsy, the rats were starved for 6 hours before dissection. At 6 and 3 hours before dissection, 2 g/10 ml/kg of L-alanine was orally administered as an aqueous solution containing 0.3% aqueous carboxymethylcellulose (CMC).
After the rats were killed by bleeding under anesthesia, the dissection was performed. Liver was extracted, weighed, cryopreserved, and then subjected to the mRNA expression measurement by the ATAC-PCR method. Further, liver samples were prepared to measure the liver proliferating cell nucleus antigen (PCNA) levels.
Further, the livers of rats administered with L-alanine were stained by using anti-PCNA antibodies (antibodies directed to proliferating cell nuclear antigen (PCNA), a replication factor that accelerates activity of DNA polymerase ä), and the PCNA labeling index was measured by the method of Tanaka et al. (Tanaka et al., Byori to Rinsho, 9 (6): 791-798, 1991).
Due to the L-alanine administration, the PCNA labeling index in the livers elevated as compared with the livers of the non-administered rats (Table 2). In Table 2, Ala+represents the L-alanine-administered group, and Ala-represents the L-alanine non-administered group. Thus, hepatocytes proliferation accelerating effect due to the L-alanine administration was observed.

[7] = system: leukemia-associated cytosolic phosphoprotein stathmin; assay: ATAC-PCR gene expression in liver of partially hepatectomized rats administered L-alanine, gene No. 67; type: in vivo, rat
Description: as §1, §2, §3, §4

ATA2 = target: T1, ATA2 (Rattus norvegicus, UniProt Q9JHE5); conditions: Ala transport activity of ATA2 inhibited by treatment with MeAIB; Freeman T L et al., Hepatology 1999; cited from earlier work
T1 sequence (Q9JHE5 1-504): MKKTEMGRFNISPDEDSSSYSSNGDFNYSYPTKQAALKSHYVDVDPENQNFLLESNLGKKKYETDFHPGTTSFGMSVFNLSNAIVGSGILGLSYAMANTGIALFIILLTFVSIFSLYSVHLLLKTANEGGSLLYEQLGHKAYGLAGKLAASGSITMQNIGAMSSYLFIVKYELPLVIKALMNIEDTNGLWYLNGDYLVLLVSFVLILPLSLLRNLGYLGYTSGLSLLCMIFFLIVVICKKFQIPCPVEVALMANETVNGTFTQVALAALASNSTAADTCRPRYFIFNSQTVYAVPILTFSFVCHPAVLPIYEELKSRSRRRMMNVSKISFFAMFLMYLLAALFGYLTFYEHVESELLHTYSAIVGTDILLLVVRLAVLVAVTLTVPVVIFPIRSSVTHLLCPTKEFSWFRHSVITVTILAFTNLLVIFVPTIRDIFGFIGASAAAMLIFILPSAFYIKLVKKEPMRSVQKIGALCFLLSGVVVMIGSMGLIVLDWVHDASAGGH

[8] = ATAC-PCR, liver 24 hr after hepatectomy, L-alanine-administered vs non-administered group
[9] = liver 24 hr after hepatectomy with L-alanine, ratio to gene panel expression at 0 hour
[10] = individual rats 2-1, 2-2 (Group 2, taken as Ala+), L-alanine 2 g/10 ml/kg orally 18 and 21 hr after 70% partial hepatectomy, liver at 24 hr

## C[C@H](N)C(=O)O [L-alanine]
[1]
  Expression level of genes involved in L-alanine metabolism (genes of Table 7 and Nos. 139, 140, 151): changes in expression level due to the L-alanine administration were observed
[2]; [8]
  Ala+, 24 hr/Ala-, 24 hr expression ratio, gene No. 17: 5.5
[2]; [9]
  Ala+ 24 hr relative expression value based on expression before hepatectomy, gene No. 17: 228.3
deoxy-UTPase (dUTPase); [8]
  Ala+, 24 hr/Ala-, 24 hr expression ratio, gene No. 68: 3.5
deoxy-UTPase (dUTPase); [9]
  Ala+ 24 hr relative expression value based on expression before hepatectomy, gene No. 68: 24.9
Nuclear RNA helicase; [8]
  Ala+, 24 hr/Ala-, 24 hr expression ratio, gene No. 36: 4.6
Nuclear RNA helicase; [9]
  Ala+ 24 hr relative expression value based on expression before hepatectomy, gene No. 36: 25.8
[3]; [8]
  Ala+, 24 hr/Ala-, 24 hr expression ratio, gene No. 46: 4.4
[3]; [9]
  Ala+ 24 hr relative expression value based on expression before hepatectomy, gene No. 46: 11.4
[4]; 24 h
  Ala+, 24 hr/Ala-, 24 hr expression ratio, gene No. 5: 4.8
[4]; [9]
  Ala+ 24 hr relative expression value based on expression before hepatectomy, gene No. 5: 4.8
[5]; [8]
  Ala+, 24 hr/Ala-, 24 hr expression ratio, gene No. 117: 3.2
[5]; [9]
  Ala+ 24 hr relative expression value based on expression before hepatectomy, gene No. 117: 0.6
Liver regeneration
  effect on liver regeneration: accelerate liver regeneration
[6]; L-alanine orally 18 and 21 hr after partial hepatectomy, liver at 24 hr
  PCNA labeling index in the livers as compared with non-administered rats: elevated
[6]; group mean of rats 2-1, 2-2 (taken as Ala+), non-administered group mean 0.6%, liver 24 hr after hepatectomy
  PCNA Labeling Index (%), Mean: 64.7%
[6]; [10]
  PCNA Labeling Index (%): 65.5% and 64.0%
  PCNA Negative cells: 247 and 240
  PCNA positive cells: 468 and 426
[7]; [8]
  Ala+, 24 hr/Ala-, 24 hr expression ratio, gene No. 67: 4.2
[7]; [9]
  Ala+ 24 hr relative expression value based on expression before hepatectomy, gene No. 67: 25.6

## CNC(C)(C)C(=O)O [MeAIB, alpha-(methylamino)isobutyric acid]
ATA2
  uptake of [3H]thymidine into DNA: decreased
